Laboratory results as given in patent US5231031A, “Method for assessing risk of diabetes-associated pathologic conditions and efficacy of therapies for such conditions” (priority 1990, dated 1993).

Key:
[1] = compared with F3P; cited from earlier work
[2] = Glycosylating activity and lability
Text: A difficult problem encountered in the medical treatment of diabetes has been the inability to identify those diabetic patients who are at risk of experiencing some diabetes-associated pathologic condition, so as to effect timely intervention. […] Kato, M., Hayase, F., Shin, D. B., Oimomi, M. and Baba, S. (1989), The Maillard Reaction in Aging, Diabetes and Nutrition, J. W. Baynes and V. M. Monnier, eds, at 69-84 (Liss, New York, 1989).

[3] = test system: erythrocytes; test: Effect of fructose-3-phosphate on red cell viability, 31P NMR; type: cell-based, human
Experimental: FIGS. 3A-C are ^31 P NMR spectra showing the effect of fructose-3-phosphate on red cell viability.
Spectra were collected in 250-5000 scans using a 60° pulse and a 1.5 sec. repetition rate.
FIGS. 3A-C illustrates the results of an experiment which confirms that this indeed is the case for erythrocytes. […] This phenomenon indicates very strongly that F3P is indeed a toxic agent which, at sufficiently high concentration, leads to an irreversible decline in cell function and ultimately to cell death.

[4] = pKa of the phosphorylated metabolites (Table 1); type: physicochemical
Text: While the toxic potential and precise structures of compounds a and b are not known, they have many characteristics in common with S3P and F3P, such as unique chemical shifts, large ^1 H-^31 P spin-spin coupling constants and unusually low pKa' values (see Table 1). In these properties, Compounds a and b differ substantially from other phosphomonoesters and thus appear to belong to the same class of compounds as S3P and F3P. […] There is a good correlation between these elevated concentrations and the presence of clinical symptoms of diabetic complications such as retinopathy, peripheral neuropathy and peripheral vascular disease. This correlation is especially striking when one compares the sum of the concentrations of compounds a and b with the concentration of S3P ([a]+[b]/[S3P]).
Compound (at pH 7.5) (Hz) pKa

[5] = erythrocytes loaded with F3P, then 12 hrs. in fructose-free medium

| Compound | glycosylating and cross-linking potency [1] | glycosylating potency [2] | lability ([2]; especially in the presence of amines, breaks down to 3-deoxyglucosone) | toxicity to erythrocytes ([3]; at sufficiently high concentration) | concentration of ATP [3, 5] | hemolysis of the cells [3, 5] | pKa [4] |
| --- | --- | --- | --- | --- | --- | --- | --- |
| O=CC(=O)C[C@H](O)[C@H](O)CO [Compound 3dG, 3-deoxyglucosone] | even more potent Maillard glycosylating and cross-linking agent |  |  |  |  |  |  |
| O=C(CO)[C@@H](OP(=O)(O)O)[C@H](O)[C@H](O)CO [Compound F3P, fructose-3-phosphate] |  | relatively potent glycosylating agent | quite labile | toxic agent | dramatic decrease | extensive hemolysis | 5.6 |
| O=P(O)(O)O[C@@H]([C@H](O)[C@H](O)CO)[C@@H](O)CO [Compound S3P, sorbitol-3-phosphate] |  |  |  |  |  |  | 5.4 |
